Data: PubChem BioAssay (NCI)
Values joined by “and” are separate entries in the source; they are usually repeats but may differ in a detail not shown here. Equal values may be shown once.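 Cultured in 96-well plates, cells were exposed to test compound for 48 hours across five concentrations. At the GI50, growth is halved. TGI marks complete inhibition of growth.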

Key:
Assay in all cases: NCI tumour cell line growth inhibition, 48 h
[1] = test system: CCRF-CEM leukemia
[2] = test system: DU-145 prostate
[3] = test system: HOP-92 NSCLC
[4] = test system: IGROV1 ovarian
[5] = test system: M14 melanoma
[6] = test system: MCF7 breast
[7] = test system: NCI-H460 lung
[8] = test system: OVCAR-8 ovarian
[9] = test system: SF-295 CNS
[10] = test system: SK-MEL-28 melanoma

Row | SMILES | TGI [1] | TGI [2] | TGI [3] | TGI [4] | TGI [5] | TGI [6] | TGI [7] | TGI [8] | TGI [9] | TGI [10] | GI50 [1] [µM] | GI50 [2] [µM] | GI50 [3] [µM] | GI50 [4] [µM] | GI50 [5] [µM] | GI50 [6] [µM] | GI50 [7] [µM] | GI50 [8] [µM] | GI50 [9] [µM] | GI50 [10] [µM]
1 | Cc1cc(Cl)ccc1Nc1sc(C(=O)c2cc3cc(Cl)ccc3o2)c(N)c1C#N | > 52.8 µM | > 100 µM | > 100 µM | > 100 µM | > 100 µM | 59.6 µM | > 64.3 µM | > 87.2 µM | > 100 µM | > 100 µM | – | – | – | – | – | – | – | – | – | –
2 | CS(=O)(=O)CCNCc1ccc(-c2ccc3ncnc(Nc4ccc(OCc5ccccc5)c(C(F)(F)F)c4)c3c2)o1 | > 23.1 µM | > 25 µM | 20.8 µM | > 22.2 µM | 10.4 µM | 9.59 µM | 9.34 µM | > 25 µM | 10.6 µM | 8.83 µM | 7.29 | 10.3 | 4.9 | 6.36 | 5.26 | 4.55 | 4.8 | 8.39 | 5.1 | 4.43
3 | CCCCCCN(CCCCCC)C(=N)c1ccnc2ccccc12 | 18.4 µM | 26.6 µM | 9.22 µM | 13.4 µM | 4.56 µM | 5.53 µM | 12.7 µM | 24.1 µM | 13.4 µM | 8.6 µM | 3.17 | 13.5 | 1.39 | 2.83 | 1.89 | 2.13 | 2.59 | 10.4 | 1.39 | 3.13
4 | C=C(C)C(=O)NC(N)=NC#N | 59.9 µM and 60.5 µM | 291 µM | 33.7 µM and 63.1 µM | > 75.1 µM and 309 µM | 47.8 µM and 131 µM | 248 µM | 306 µM | > 90 µM and 287 µM | 330 µM | > 56.9 µM and 205 µM | – | 145 | 26.7 | 168 | 21 | 109 | 163 | 119 | 179 | 75
5 | CCOC(=O)[C@H](CSSc1ncnc2cc[nH]c12)NC(=O)[C@@H](C)c1ccc2cc(OC)ccc2c1 | > 100 µM | > 100 µM | 41 µM | > 100 µM | > 62.1 µM | > 100 µM | > 100 µM | > 100 µM | > 100 µM | > 100 µM | 0.532 | 0.213 | 0.39 | 5.08 | 0.13 | 0.122 | 3.04 | 1.82 | 0.438 | 13.8
6 | O=S(=O)(/C=C/C=C/S(=O)(=O)c1ccccc1)c1ccccc1 | 0.691 µM and 0.424 µM | 27.7 µM | 2.77 µM and 3.35 µM | 3.57 µM | 1.12 µM and 2.06 µM | 3.81 µM and 2.3 µM | 16.9 µM | 2.12 µM and 5.95 µM | 22.2 µM | 1.96 µM and 5.79 µM | – | – | – | 1.39 | 0.801 | 0.525 | 4.01 | 2.61 | – | 2.49
7 | CC(C)C1C(=O)N2CCCC2C2(O)OC(NC(=O)C3C=C4c5cccc6[nH]cc(c56)CC4N(C)C3)(C(C)C)C(=O)N12 (stereo not given) | 91.3 µM | > 100 µM | 30.1 µM | 36.5 µM | 75.5 µM | > 100 µM | 39.2 µM | 52.9 µM | 64.4 µM | > 100 µM | – | – | – | – | – | – | – | – | – | –
8 | CN(C)CC/C=C1\c2ccccc2Sc2ccc(Cl)cc21 | 15.4 µM and 25.2 µM | 18.6 µM and 29.7 µM | 3.39 µM and 18.7 µM | 11.3 µM and 26.3 µM | 3.58 µM and 11.4 µM | 3.37 µM and 30.3 µM | 3.95 µM and 28.8 µM | 4.44 µM and 32.8 µM | 4.09 µM and 29.7 µM | 3.11 µM and 20.2 µM | 3.36 | 6.38 | 0.379 | 3.24 | 1.87 | 1.81 | 2.02 | 1.99 | 1.78 | 1.74
9 | CON(C)C(=O)C(Cc1ccccc1)NC(=O)OC(C)(C)C (stereo not given) | > 100 µM | > 100 µM | > 100 µM | > 100 µM | > 100 µM | > 100 µM | > 100 µM | > 100 µM | > 100 µM | > 100 µM | – | – | – | – | – | – | – | – | – | –
